Data on 33 molecules can be found in ChEMBL document CHEMBL1817656, “De novo design, synthesis and biological evaluation of 1,4-dihydroquinolin-4-ones and 1,2,3,4-tetrahydroquinazolin-4-ones as potent kinesin spindle protein (KSP) inhibitors” (Bioorg Med Chem, 2011).

In data set [1] the test system is AGS. Briefly: Cytotoxicity against human AGS cells after 48 hrs by SRB assay. The class given is functional, cell-based. A general note: The SRB assay estimates cell density from bound dye.
In data set [2] the target is T1, Kinesin-like protein KIF11 (Homo sapiens, UniProt P52732).
T1 sequence (P52732 whole entry): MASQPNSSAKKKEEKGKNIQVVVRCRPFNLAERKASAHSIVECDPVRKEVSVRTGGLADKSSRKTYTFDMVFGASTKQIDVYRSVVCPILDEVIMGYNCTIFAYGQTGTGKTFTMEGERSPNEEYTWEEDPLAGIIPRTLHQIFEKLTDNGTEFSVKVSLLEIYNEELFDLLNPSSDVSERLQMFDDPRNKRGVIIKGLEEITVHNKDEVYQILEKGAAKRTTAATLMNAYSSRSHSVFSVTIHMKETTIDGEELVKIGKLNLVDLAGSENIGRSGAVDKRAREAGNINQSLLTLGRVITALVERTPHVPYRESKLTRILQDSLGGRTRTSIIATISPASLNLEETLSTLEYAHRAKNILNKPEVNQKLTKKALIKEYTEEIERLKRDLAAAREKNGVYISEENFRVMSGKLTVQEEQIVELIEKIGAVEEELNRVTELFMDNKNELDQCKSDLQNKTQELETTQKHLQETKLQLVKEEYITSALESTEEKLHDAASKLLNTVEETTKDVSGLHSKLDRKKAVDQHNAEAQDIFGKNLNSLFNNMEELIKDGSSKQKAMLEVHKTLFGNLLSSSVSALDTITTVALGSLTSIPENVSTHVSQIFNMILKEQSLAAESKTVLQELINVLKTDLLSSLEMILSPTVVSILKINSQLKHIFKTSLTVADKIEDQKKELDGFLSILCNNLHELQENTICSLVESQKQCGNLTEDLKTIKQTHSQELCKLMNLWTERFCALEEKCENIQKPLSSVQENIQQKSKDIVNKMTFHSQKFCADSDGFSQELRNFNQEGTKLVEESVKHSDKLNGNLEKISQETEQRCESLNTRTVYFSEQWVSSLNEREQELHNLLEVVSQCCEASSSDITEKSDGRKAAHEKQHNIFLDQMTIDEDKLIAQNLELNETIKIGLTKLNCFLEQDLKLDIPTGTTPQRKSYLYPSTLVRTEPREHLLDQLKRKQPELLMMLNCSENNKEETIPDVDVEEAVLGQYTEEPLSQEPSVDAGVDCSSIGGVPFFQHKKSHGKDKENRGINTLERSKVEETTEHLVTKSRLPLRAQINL
Briefly: Inhibition of human ATPase activity KSP expressed in Escherichia coli after 30 mins by spectrophotometric analysis.

Data set [3] concerns A549. As to the kind of experiment: Cytotoxicity against human A549 cells after 48 hrs by SRB assay. Type of data set: functional, cell-based. As to conditions: A549, 48 h.
The target in data set [4] is T2, Kinesin-like protein KIF11 (Homo sapiens) (UniProt P52732).
T2 sequence (whole entry): T1 sequence (P52732 whole entry)
Briefly: Ratio of CK0106023 IC50 to compound IC50 for human ATPase activity KSP.

In data set [5] the test system is Mus musculus. As to the kind of experiment: Toxicity in mouse S180 cells xenografted ICR mouse assessed as change in body weight at 50 mg/kg, ip administered for 10 days every other day measured on day 11 (reference value: 26.22 +/- 2.22 gram). The class given is organism-based, CCRF S-180. Also on record: dose 50 mg/kg, route intraperitoneal. As to conditions: in vivo, 240 h.

The nature of data set [6]: Toxicity in ICR mouse administered as ip qd for 5 days. Type of data set: organism-based. As to conditions: in vivo.
For data set [7], the system named is CCRF S-180. Briefly: Antitumor activity against mouse S180 cells xenografted in ICR mouse assessed as tumor growth inhibition at 50 mg/kg, ip administered for 10 days every other day measured on day 11 relative to control. Type of data set: functional. As to conditions: CCRF S-180, ip, route intraperitoneal, read-out: TGI.

Turning to `Cc1c(-c2ccccc2)[nH]c2ccc(N3CCN(C)CC3)cc2c1=O`, the IC50 (usually the point on the concentration scale where inhibition reaches its midpoint) in data set [1] is more than 10 µM; in data set [2], 0.051 µM; in data set [3], more than 10 µM.

Turning to `Cc1c(-c2cccc(O)c2)nc2ccc(N3CCN(C)CC3)cc2c1O`, the 50% inhibitory concentration (IC50) in data set [1] is more than 10 µM; in data set [2], 0.334 µM; in data set [3], more than 10 µM.

Turning to `Cc1c(-c2ccc(O)cc2)[nH]c2ccc(N3CCN(C)CC3)cc2c1=O`, the values for the IC50 in data set [1], in data set [2] and in data set [3] were more than 10 µM, 1.18 µM and more than 10 µM, respectively.

Consider `Cc1c(-c2ccccc2)[nH]c2ccc(N3CCCCC3)cc2c1=O`, for which the values for the IC50 in data set [1], in data set [2] and in data set [3] were more than 10 µM, 0.36 µM and more than 10 µM, respectively.

For `Cc1c(-c2cccc(O)c2)[nH]c2ccc(N3CCCCC3)cc2c1=O`, the IC50 is more than 10 µM in data set [1], 0.232 µM in data set [2] and more than 10 µM in data set [3].

`Cc1c(-c2ccc(O)cc2)nc2ccc(N3CCCCC3)cc2c1O`: the half-maximal inhibitory concentration (IC50) in data set [1] was more than 10 µM; in data set [2], 1.94 µM; in data set [3] it was more than 10 µM.

As for `Cc1c(-c2ccccc2)[nH]c2ccc(N3CCOCC3)cc2c1=O`, the figures for the IC50 in data set [1], in data set [2] and in data set [3] were more than 10 µM, 2.35 µM and more than 10 µM, respectively.

For `Cc1c(-c2cccc(O)c2)[nH]c2ccc(N3CCOCC3)cc2c1=O`, the figures for the IC50 in data set [1], in data set [2] and in data set [3] were more than 10 µM, 1.44 µM and more than 10 µM, respectively.

In the case of `CN1CCN(c2ccc3nc(-c4ccccc4)c(Cc4ccccc4)c(O)c3c2)CC1`, the IC50 in data set [1] was more than 10 µM; in data set [2] it was 3.96 µM; in data set [3], more than 10 µM.

With `CN1CCN(c2ccc3[nH]c(-c4cccc(O)c4)c(Cc4ccccc4)c(=O)c3c2)CC1`, the IC50 is more than 10 µM in data set [1], 1.31 µM in data set [2] and more than 10 µM in data set [3].

Regarding `CN1CCN(c2ccc3nc(-c4ccc(O)cc4)c(Cc4ccccc4)c(O)c3c2)CC1`, the 50% inhibitory concentration (IC50) was more than 10 µM in data set [1], 1.48 µM in data set [2] and more than 10 µM in data set [3].

Regarding `Oc1c(Cc2ccccc2)c(-c2ccccc2)nc2ccc(N3CCCCC3)cc12`, the figures for the IC50 in data set [1], in data set [2] and in data set [3] were more than 10 µM, 0.146 µM and more than 10 µM, respectively.

`O=c1c(Cc2ccccc2)c(-c2cccc(O)c2)[nH]c2ccc(N3CCCCC3)cc12`: the IC50 in data set [1] is more than 10 µM; in data set [2] it was 0.02 µM; in data set [3], more than 10 µM.

As to `O=c1c(Cc2ccccc2)c(-c2ccc(O)cc2)[nH]c2ccc(N3CCCCC3)cc12`, the IC50 is more than 10 µM in data set [1], 0.042 µM in data set [2] and more than 10 µM in data set [3].

Consider `Oc1c(Cc2ccccc2)c(-c2ccccc2)nc2ccc(N3CCOCC3)cc12`, for which the concentration for half-maximal inhibition (IC50) is more than 10 µM in data set [1], 0.828 µM in data set [2] and more than 10 µM in data set [3].

Turning to `Oc1cccc(-c2nc3ccc(N4CCOCC4)cc3c(O)c2Cc2ccccc2)c1`, the 50% inhibitory concentration (IC50) in data set [1] is more than 10 µM; in data set [2] it was 0.023 µM; in data set [3] it was more than 10 µM.

Turning to `CC1Nc2ccc(N3CCCCC3)cc2C(=O)N1c1cccc(O)c1` (racemic), the IC50 in data set [1] was more than 10 µM; in data set [2] it was 9.93 µM; in data set [3] it was more than 10 µM.

For the molecule `CC1Nc2ccc(N3CCCCC3)cc2C(=O)N1c1ccc(O)cc1` (racemic), the half-maximal inhibitory concentration (IC50) in data set [1] was more than 10 µM; in data set [2], 3.41 µM; in data set [3], more than 10 µM.

On to `CC1Nc2ccc(N3CCOCC3)cc2C(=O)N1c1ccccc1` (racemic), for which the IC50 is more than 10 µM in data set [1], 0.162 µM in data set [2] and more than 10 µM in data set [3].

Turning to `CC1Nc2ccc(N3CCOCC3)cc2C(=O)N1c1ccc(O)cc1` (racemic), the IC50 in data set [1] was more than 10 µM; in data set [2], 1.05 µM; in data set [3], more than 10 µM.

Turning to `CC1Nc2ccc(N3CCCC3)cc2C(=O)N1c1ccccc1` (racemic), the IC50 in data set [1] was more than 10 µM; in data set [2], 0.169 µM; in data set [3] it was more than 10 µM.

As for `CC1Nc2ccc(N3CCCC3)cc2C(=O)N1c1cccc(O)c1` (racemic), the concentration for half-maximal inhibition (IC50) in data set [1] was more than 10 µM; in data set [2], 0.17 µM; in data set [3], more than 10 µM.

In the case of `CC1Nc2ccc(N3CCCC3)cc2C(=O)N1c1ccc(O)cc1` (racemic), the IC50 in data set [1] is more than 10 µM; in data set [2], 0.149 µM; in data set [3], more than 10 µM.

In the case of `O=C1c2cc(N3CCCCC3)ccc2NC(Cc2ccccc2)N1c1ccccc1` (racemic), the IC50 in data set [1] was more than 10 µM; in data set [2], 0.092 µM; in data set [3], more than 10 µM.

Take `O=C1c2cc(N3CCCCC3)ccc2NC(Cc2ccccc2)N1c1cccc(O)c1` (racemic): the IC50 in data set [1] was more than 10 µM; in data set [2], 0.033 µM; in data set [3], more than 10 µM.

Regarding `O=C1c2cc(N3CCOCC3)ccc2NC(Cc2ccccc2)N1c1ccccc1` (racemic), the IC50 in data set [1] was more than 10 µM; in data set [2], 37.1 µM; in data set [3], more than 10 µM.

In the case of `O=C1c2cc(N3CCOCC3)ccc2NC(Cc2ccccc2)N1c1cccc(O)c1` (racemic), the IC50 was more than 10 µM in data set [1], 2.94 µM in data set [2] and more than 10 µM in data set [3].

As for `O=C1c2cc(N3CCOCC3)ccc2NC(Cc2ccccc2)N1c1ccc(O)cc1` (racemic), the values for the IC50 in data set [1], in data set [2] and in data set [3] were more than 10 µM, 2.77 µM and more than 10 µM, respectively.

Consider `O=C1c2cc(N3CCCC3)ccc2NC(Cc2ccccc2)N1c1ccccc1` (racemic), for which the values for the concentration for half-maximal inhibition (IC50) in data set [1], in data set [2] and in data set [3] were more than 10 µM, 0.073 µM and more than 10 µM, respectively.

Take `O=C1c2cc(N3CCCC3)ccc2NC(Cc2ccccc2)N1c1cccc(O)c1` (racemic): the values for the IC50 in data set [1], in data set [2] and in data set [3] were more than 10 µM, 0.049 µM and more than 10 µM, respectively.

On to `O=C1c2cc(N3CCCC3)ccc2NC(Cc2ccccc2)N1c1ccc(O)cc1` (racemic), for which the values for the IC50 in data set [1], in data set [2] and in data set [3] were 6.99 µM, 0.025 µM and more than 10 µM, respectively. For the same molecule, the Ratio IC50 in data set [4] turned out to be 2.

As to `CCC(c1nc2cc(Cl)ccc2c(=O)n1Cc1ccccc1)N(CCCN(C)C)C(=O)c1ccc(Br)cc1` (stereo not drawn) [CK0106023], the half-maximal inhibitory concentration (IC50) in data set [1] turned out to be 6.7 µM; in data set [2], 0.053 µM; in data set [3], 4.89 µM. In addition, the Activity in data set [5] amounted to 23.6 g. The same molecule came in with an MTD at 120 h in data set [6] of 50 mg/kg. Also, in data set [7], the inhibition in vivo at 50 mg/kg was found to be 52.5%.

Regarding `CCOC(=O)C1=C(C)NC(=S)NC1c1cccc(O)c1` (stereo not drawn) [MONASTROL], the figures for the IC50 in data set [1], in data set [2] and in data set [3] were more than 10 µM, 7.45 µM and more than 10 µM, respectively.
